Test results taken from PMC12369479 (Journal of Experimental Botany, 2025).

Columns and labels:
[1] = target: ZmADK3 (Zea mays, UniProt A0A1D6E5Z5); assay: ADK activity, coupled reaction with PK and LDH; format: biochemical
Protocol: Substrate analogs were purchased from Sigma-Aldrich (www.sigmaaldrich.com). […] In this assay, PK converts ADP produced by ADK and phosphoenolpyruvate (PEP) to pyruvate. Subsequently, LDH then converts pyruvate to lactate using the coenzyme NADH, with the conversion monitored at 340 nm. The reaction was conducted in 50 mM Tris–HCl buffer at pH 7.5, containing 50 mM KCl, 6 mM MgCl2, 300 µM PEP, 200 µM NADH, 10 mM ATP, 2 U of PK, and 2.5 U of LDH, using various nucleoside substrates. Kinetic constants were determined using GraphPad Prism 8.0 software (www.graphpad.com). Each measurement was performed six times using repetitive purified enzymes. […] The reaction mixture comprised 50 mM Tris–HCl pH 7.5, 5 mM MgCl2, 0.5 mM DTT, 30 mM NaF, 5 mM ATP, 40 µM substrate, and 2–150 ng of purified ADK, depending on the isoform. The reaction was incubated at 30 °C for up to 1 h.

[2] = test system: both moss enzymes; assay: ADK activity, coupled reaction (summary for moss enzymes); format: biochemical, Physcomitrella patens; conditions: saturating 100 µM concentration
Protocol: (§1) Substrate analogs were purchased from Sigma-Aldrich (www.sigmaaldrich.com). The ADK activity was measured spectrophotometrically on an Agilent 8453 UV-Vis spectrophotometer (www.agilent.com) at 30 °C using a coupled reaction with pyruvate kinase (PK) and lactate dehydrogenase (LDH) (www.sigmaaldrich.com) ([Blondin et al., 1994]). In this assay, PK converts ADP produced by ADK and phosphoenolpyruvate (PEP) to pyruvate. Subsequently, LDH then converts pyruvate to lactate using the coenzyme NADH, with the conversion monitored at 340 nm. The reaction was conducted in 50 mM Tris–HCl buffer at pH 7.5, containing 50 mM KCl, 6 mM MgCl2, 300 µM PEP, 200 µM NADH, 10 mM ATP, 2 U of PK, and 2.5 U of LDH, using various nucleoside substrates. Kinetic constants were determined using GraphPad Prism 8.0 software (www.graphpad.com). Each measurement was performed six times using repetitive purified enzymes. The activities of all five ADKs were also measured by HPLC ([Moffatt et al., 1991]). The reaction mixture comprised 50 mM Tris–HCl pH 7.5, 5 mM MgCl2, 0.5 mM DTT, 30 mM NaF, 5 mM ATP, 40 µM substrate, and 2–150 ng of purified ADK, depending on the isoform. The reaction was incubated at 30 °C for up to 1 h. […]

[3] = target: WT ZmADK3 (Zea mays, UniProt A0A1D6E5Z5); assay: Binding affinity by MST
[4] = target: ZmADK2 and PpADK1; assay: Binding affinity by MST (summary for both enzymes); set-up: species or system Zea mays, Physcomitrella patens; conditions: range over ZmADK2 and PpADK1
Protocol: (§2) The microscale thermophoresis (MST) method was used to determine the binding affinity of various ribosides for ZmADK2 and PpADK1. Proteins were fluorescently labeled with RED-tris-NTA dye (www.nanotemper-technologies.com) using a 1:1 dye/protein molar ratio. The labeled protein was adjusted to 100–300 nM in 50 mM HEPES buffer pH 7.5, 1 mM MgCl2, and 0.2% Tween. Measurements were performed in premium capillaries on a Monolith NT.115 instrument at 30 °C with 5 s/30 s/5 s laser off/on/off times, respectively, with continuous sample fluorescence recording. Thermal stability was measured by nano-differential scanning fluorimetry on a Prometheus NT.48 instrument (www.nanotemper-technologies.com) in various buffers covering a pH (7.0–9.5) and temperature range (25–95 °C), with a heating rate of 1 °C min^–1, and using NT melting control software. Protein unfolding was measured by detecting the temperature-induced change in tryptophan fluorescence intensity at emission wavelengths of 330±5 nm and 350±5 nm. The melting temperature (Tm) was deduced from the maximum of the first derivative of the fluorescence ratios F350/F330.

[5] = target: ZmADK3 E225A variant (Zea mays, UniProt A0A1D6E5Z5, E225A); assay: Binding affinity by MST
Protocol: (§3) All ZmADK3 mutants were cloned by 30 cycle PCRs using tail-to-tail oriented phosphorylated primers, with the mutation being located at the 5′ end of one of the primers. The following mutants were cloned using the primers given in Supplementary Table S1: D19A, R132A, N222A, E225A, N295A, and D299A. The products were treated with DpnI restriction enzyme, gel purified, and ligated using T4 DNA ligase (www.thermofisher.com). Clones were transformed into T7 express I^qE. coli competent cells.
as §2

[6] = target: ZmADK3 N295A variant (Zea mays, UniProt A0A1D6E5Z5, N295A); assay: Binding affinity by MST
Protocol: as §3, §2

[7] = target: ZmADK3 D19A variant (Zea mays, UniProt A0A1D6E5Z5, D19A); assay: Binding affinity by MST
Protocol: as §3, §2

[8] = target: ZmADK3 D299A variant (Zea mays, UniProt A0A1D6E5Z5, D299A); assay: Binding affinity by MST
Protocol: as §3, §2

[9] = target: ZmADK3 N222A variant (Zea mays, UniProt A0A1D6E5Z5, N222A); assay: Binding affinity by MST
Protocol: as §3, §2

[10] = target: ZmADK3 R132A variant (Zea mays, UniProt A0A1D6E5Z5, R132A); assay: Binding affinity by MST
Protocol: as §3, §2

[11] = test system: rabbit ADK; set-up: method as in Miller et al., 1979a; conditions: ref Miller et al., 1979a; cited from earlier work
[12] = test system: all three maize ADKs; assay: ADK activity, coupled reaction (summary for maize enzymes); format: biochemical, Zea mays; conditions: saturating 100 µM concentration
Protocol: as §1

[13] = target: PpADK2 (Physcomitrium patens, UniProt A9RF27); assay: ADK activity, coupled reaction with PK and LDH; conditions: 100 µM substrate, 10 mM ATP, pH 7.5, 30 °C
Protocol: (§4) Substrate analogs were purchased from Sigma-Aldrich (www.sigmaaldrich.com). The ADK activity was measured spectrophotometrically on an Agilent 8453 UV-Vis spectrophotometer (www.agilent.com) at 30 °C using a coupled reaction with pyruvate kinase (PK) and lactate dehydrogenase (LDH) (www.sigmaaldrich.com) ([Blondin et al., 1994]). In this assay, PK converts ADP produced by ADK and phosphoenolpyruvate (PEP) to pyruvate. Subsequently, LDH then converts pyruvate to lactate using the coenzyme NADH, with the conversion monitored at 340 nm. The reaction was conducted in 50 mM Tris–HCl buffer at pH 7.5, containing 50 mM KCl, 6 mM MgCl2, 300 µM PEP, 200 µM NADH, 10 mM ATP, 2 U of PK, and 2.5 U of LDH, using various nucleoside substrates. Kinetic constants were determined using GraphPad Prism 8.0 software (www.graphpad.com). Each measurement was performed six times using repetitive purified enzymes. The activities of all five ADKs were also measured by HPLC ([Moffatt et al., 1991]). The reaction mixture comprised 50 mM Tris–HCl pH 7.5, 5 mM MgCl2, 0.5 mM DTT, 30 mM NaF, 5 mM ATP, 40 µM substrate, and 2–150 ng of purified ADK, depending on the isoform. The reaction was incubated at 30 °C for up to 1 h. […] Similarly, the conversion of cytokinin ribosides to monophosphates was followed on a LiChrosphere 60 RP-Select B (5 µm) LiChroCART column 125-4 column equilibrated with 10 mM triethylamine at pH 5.4 plus 10% methanol, and stepwise eluted with 100% methanol.

[14] = target: ZmADK1 (Zea mays, UniProt K7UH13); assay: ADK activity, coupled reaction with PK and LDH; conditions: 100 µM substrate, 10 mM ATP, pH 7.5, 30 °C
Protocol: as §4

Chain of ZmADK3 (A0A1D6E5Z5 entry or part of it): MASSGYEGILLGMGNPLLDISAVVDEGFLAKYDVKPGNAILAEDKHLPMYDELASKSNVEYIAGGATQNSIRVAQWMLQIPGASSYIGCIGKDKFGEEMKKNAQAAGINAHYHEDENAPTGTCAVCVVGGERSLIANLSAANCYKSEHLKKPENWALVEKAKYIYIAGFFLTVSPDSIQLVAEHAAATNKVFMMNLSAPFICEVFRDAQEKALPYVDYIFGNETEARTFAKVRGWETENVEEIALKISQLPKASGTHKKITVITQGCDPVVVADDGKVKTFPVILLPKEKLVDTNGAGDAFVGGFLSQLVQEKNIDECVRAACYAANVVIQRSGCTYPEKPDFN
Chain of ZmADK3 D299A variant (A0A1D6E5Z5 entry or part of it D299A): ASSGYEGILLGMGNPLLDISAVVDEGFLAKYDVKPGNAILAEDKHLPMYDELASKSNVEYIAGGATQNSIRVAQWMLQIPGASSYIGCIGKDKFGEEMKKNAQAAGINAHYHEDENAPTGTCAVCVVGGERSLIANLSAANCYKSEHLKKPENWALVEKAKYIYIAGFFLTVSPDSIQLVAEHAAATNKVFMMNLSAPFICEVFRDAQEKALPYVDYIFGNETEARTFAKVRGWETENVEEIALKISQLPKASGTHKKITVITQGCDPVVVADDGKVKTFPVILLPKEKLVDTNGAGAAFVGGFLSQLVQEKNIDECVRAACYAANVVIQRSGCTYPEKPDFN
Chain of ZmADK3 N222A variant (A0A1D6E5Z5 entry or part of it N222A): as the sequence (A0A1D6E5Z5 entry or part of it D299A) above, with N221A, A298D counted along it
Chain of ZmADK3 R132A variant (A0A1D6E5Z5 entry or part of it R132A): as the sequence (A0A1D6E5Z5 entry or part of it D299A) above, with R131A, A298D counted along it
Chain of ZmADK3 E225A variant (A0A1D6E5Z5 entry or part of it E225A): as the sequence (A0A1D6E5Z5 entry or part of it D299A) above, with E224A, A298D counted along it
Chain of ZmADK3 N295A variant (A0A1D6E5Z5 entry or part of it N295A): as the sequence (A0A1D6E5Z5 entry or part of it D299A) above, with N294A, A298D counted along it
Chain of WT ZmADK3 (A0A1D6E5Z5 2-344): as the sequence (A0A1D6E5Z5 entry or part of it D299A) above, with A298D counted along it
Chain of PpADK2 (A9RF27 entry or part of it): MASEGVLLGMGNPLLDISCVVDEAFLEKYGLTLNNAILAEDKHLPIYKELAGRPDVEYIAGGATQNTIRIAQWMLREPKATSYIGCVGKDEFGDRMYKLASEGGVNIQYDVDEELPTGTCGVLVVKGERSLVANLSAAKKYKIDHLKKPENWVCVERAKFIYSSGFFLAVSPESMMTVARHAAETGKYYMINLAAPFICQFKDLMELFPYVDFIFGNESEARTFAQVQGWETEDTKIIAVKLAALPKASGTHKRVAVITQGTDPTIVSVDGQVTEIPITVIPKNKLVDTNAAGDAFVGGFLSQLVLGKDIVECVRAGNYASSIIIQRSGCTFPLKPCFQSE
Chain of ZmADK3 D19A variant (A0A1D6E5Z5 entry or part of it D19A): as the sequence (A0A1D6E5Z5 entry or part of it D299A) above, with D18A, A298D counted along it
Chain of ZmADK1 (K7UH13 entry or part of it): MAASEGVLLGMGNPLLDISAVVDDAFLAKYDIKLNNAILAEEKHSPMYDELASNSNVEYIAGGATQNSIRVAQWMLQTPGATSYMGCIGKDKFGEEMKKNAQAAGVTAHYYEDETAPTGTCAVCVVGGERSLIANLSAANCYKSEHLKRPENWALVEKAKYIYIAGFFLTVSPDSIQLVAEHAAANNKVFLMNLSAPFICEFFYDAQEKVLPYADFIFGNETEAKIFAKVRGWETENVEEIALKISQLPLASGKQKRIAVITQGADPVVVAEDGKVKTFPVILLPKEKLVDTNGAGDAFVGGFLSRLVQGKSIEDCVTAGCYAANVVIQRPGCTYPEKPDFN

With Nc1ncnc2c1ncn2[C@@H]1O[C@H](CO)[C@@H](O)[C@H]1O [Ado, adenosine] as the compound, how does the Specific activity ([1]; WT ZmADK3, 100 µM Ado, 10 mM ATP, 30 °C) read?
Its Specific activity is 31.0±0.8 nkat mg^–1.

And the Relative rate ([1]; WT ZmADK3, 100 µM Ado, relative to WT)?
Its Relative rate is 100.0%.

What about the Specific activity ([1]; ZmADK3, 100 µM substrate, 10 mM ATP, pH 7.5, 30 °C) of the same compound?
The Specific activity was 30.0±1.1 nmol s^–1 mg^–1.

What about the kcat ([1]; ZmADK3, 10 mM ATP, pH 7.5, 30 °C) of the same compound?
The kcat was 1.18±0.03 s^–1.

And the activity [2]?
Its activity is 4–5 nkat mg^–1.

And the Kd [3]?
The Kd was 280 ± 50 nM.

And the Kd [4]?
The Kd was 400 to 700 nM.

What about the Kd [5] of the same compound?
Its Kd is 320 ± 90 nM.

And the Kd [6]?
Its Kd is 274000 ± 10000 nM.

And the Kd [7]?
Its Kd is 989000 ± 161000 nM.

What about the Kd [8] of the same compound?
The Kd was 10300 ± 4100 nM.

What about the “lower affinity for Ado than the WT” value ([8]; D299A variant of ZmADK3) of the same compound?
Its value is ~ 37 times.

And the Kd [9]?
The Kd was 300 ± 130 nM.

And the Kd [10]?
Its Kd is 270 ± 40 nM.

What about the Km [11] of the same compound?
The Km was 0.4 µM.

And the activity [12]?
The activity was 30–40 nkat mg^–1.

What about the Specific activity [13] of the same compound?
The Specific activity was 4.70±0.05 nmol s^–1 mg^–1.

What about the Specific activity [14] of the same compound?
The Specific activity was 30.5±0.4 nmol s^–1 mg^–1.
